Measured values from patent US20090170768A1, “WATER-SOLUBLE CARBON NANOTUBE COMPOSITIONS FOR DRUG DELIVERY AND MEDICINAL APPLICATIONS” (William Marsh Rice University, priority 2007, published 2009).
Like-named read-outs stand apart in the source and are kept apart here.

Tests used:
[1] = tested on: Tu167 cells; experiment: MTT assay, in vitro cell killing in Tu167 cells; type: cell-based
Description: (§1) For the analyses, the analyses presented in FIGS. 1 and 2, the paclitaxel was dissolved in either acidic MeOH (FIG. 1) or neutral MeOH (FIG. 2) prior to association with the PEG-functionalized SWNTs. The MeOH was removed from the compositions by evaporation following sequestration of the paclitaxel by the PEG-functionalized SWNT matrix. MeOH removal was performed prior to MTT analysis. […] The control paclitaxel was dissolved in a cremaphor vehicle.

[2] = Paclitaxel solubilization in water with or without PEG-functionalized carbon nanotubes
[3] = tested on: UMSCC1 cells; experiment: MTT assay, in vitro cell killing in UMSCC1 cells; type: cell-based; conditions: Homo sapiens
Description: as §1
For the analysis presented in FIG. 4, the paclitaxel was dissolved in EtOH prior to association with the PEG-functionalized SWNTs. The EtOH was removed from the compositions by evaporation following sequestration of the paclitaxel by the PEG-functionalized SWNT matrix. EtOH removal was performed prior to MTT analysis.

[4] = tested on: cells; experiment: Intracellular delivery of FITC (cell fluorescence); type: cell-based; conditions: provided to cells
Source text: In certain embodiments, the compositions provide intracellular delivery of the at least one type of payload molecule. The intracellular delivery may occur in vitro or in vivo. […] Thus, the compositions provide intracellular delivery of the at least one type of payload molecule.

Row | precipitation from solution ([2]; 1 mg paclitaxel in 70 μL ethanol added to 1 mL of a solution containing PEG-functionalized carbon nanotubes) | precipitation from solution ([2]; 1 mg paclitaxel in 70 μL ethanol added to 1 mL of water) | Compound | IC50 ([1]; Tu167 cells, MTT, vehicle per row (cremaphor or aqueous), R^2 in parentheses, read-out: Tu167 IC50 (nm): R^2) [nM] | IC50 ([1]; dissolved in cremaphor vehicle (FIG. 3), read-out: IC50 in Tu167 cells) [nM] | IC50 ([3]; UMSCC1, cremaphor vehicle (FIG. 5), read-out: IC50 in UMSCC1 cells) [nM] | IC50 ([3]; UMSCC1 cells, MTT, vehicle per row (cremaphor or aqueous), R^2 in parentheses, read-out: UMSCCI IC50 (nm): R^2) [nM] | intracellular fluorescence [4]
1 | no paclitaxel precipitates from solution | immediately precipitates from solution | CC(=O)O[C@H]1C(=O)[C@@]2(C)[C@H]([C@H](OC(=O)c3ccccc3)[C@]3(O)C[C@H](OC(=O)[C@H](O)[C@@H](NC(=O)c4ccccc4)c4ccccc4)C(C)=C1C3(C)C)[C@]1(OC(C)=O)CO[C@@H]1C[C@@H]2O [PACLITAXEL, paclitaxel] | 0.62 | 0.62 | 0.26 | 0.26 | 
2 |  |  | fluorescein isothiocyanate [FITC] |  |  |  |  | no intracellular fluorescence was observed
